Consider five compounds from ChEMBL document CHEMBL5143749, “Discovery of Insulin/GLP-1/Glucagon Triagonists for the Treatment of Diabetes and Obesity” (ACS Med Chem Lett, 2022).

The species entered for test [1] is Homo sapiens. In words: Selectivity ratio of EC50 for human […] expressed in frozen cells to EC50 for human GLP1R expressed in frozen cells. It is filed as cell-based.
In test [2] the target is Glucagon-like peptide 1 receptor (Homo sapiens, UniProt P43220). The experiment in a line: Agonist activity at human GLP1R expressed in frozen cells assessed as measuring the cAMP level incubated for 1 hr by HitHunter chemiluminescence based assay. The test is classed as functional, cell-based. (In general: cAMP levels reflect the balance of adenylyl cyclase and phosphodiesterase activity.)
Glucagon-like peptide 1 receptor, sequence (P43220 whole entry): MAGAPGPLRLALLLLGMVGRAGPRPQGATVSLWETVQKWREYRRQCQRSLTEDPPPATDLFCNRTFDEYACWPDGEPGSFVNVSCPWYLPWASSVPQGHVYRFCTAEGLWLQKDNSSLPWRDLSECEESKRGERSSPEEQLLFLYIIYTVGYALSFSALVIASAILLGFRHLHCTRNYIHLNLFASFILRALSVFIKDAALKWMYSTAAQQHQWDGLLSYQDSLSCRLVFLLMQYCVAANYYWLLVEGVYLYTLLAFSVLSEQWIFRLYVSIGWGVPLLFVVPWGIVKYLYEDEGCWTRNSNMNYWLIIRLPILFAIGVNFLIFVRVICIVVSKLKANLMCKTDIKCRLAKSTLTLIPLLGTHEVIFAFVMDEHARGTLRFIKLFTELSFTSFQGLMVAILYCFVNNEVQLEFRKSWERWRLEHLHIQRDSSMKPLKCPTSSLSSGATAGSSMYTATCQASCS

The target in test [3] is Glucagon receptor (Homo sapiens, UniProt P47871). The experiment in a line: Agonist activity at human GCGR expressed in frozen cells assessed as measuring the cAMP level incubated for 1 hr by HitHunter chemiluminescence based assay. It is filed as functional, cell-based.
Glucagon receptor, sequence (P47871 whole entry): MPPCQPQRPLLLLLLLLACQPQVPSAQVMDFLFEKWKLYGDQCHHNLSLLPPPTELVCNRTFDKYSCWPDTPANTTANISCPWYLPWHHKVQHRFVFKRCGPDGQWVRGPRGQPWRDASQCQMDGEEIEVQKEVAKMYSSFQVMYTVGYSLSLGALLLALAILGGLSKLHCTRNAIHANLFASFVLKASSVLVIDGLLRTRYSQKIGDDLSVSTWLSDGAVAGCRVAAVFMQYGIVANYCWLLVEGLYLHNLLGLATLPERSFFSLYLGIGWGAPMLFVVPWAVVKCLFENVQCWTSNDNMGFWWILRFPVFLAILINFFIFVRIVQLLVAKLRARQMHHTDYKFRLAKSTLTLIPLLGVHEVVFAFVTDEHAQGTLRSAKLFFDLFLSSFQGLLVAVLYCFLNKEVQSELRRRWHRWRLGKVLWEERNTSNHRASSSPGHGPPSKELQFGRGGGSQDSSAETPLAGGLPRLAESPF

Each structure is given as a SMILES string.

With `CCCCCCCCCCCCCCCC(=O)N[C@@H](CCC(=O)N[C@@H](CCC(=O)NCCCC[C@H](NC(=O)[C@H](CC(=O)O)NC(=O)[C@H](CO)NC(=O)[C@@H](NC(=O)[C@H](Cc1ccccc1)NC(=O)[C@@H](NC(=O)CNC(=O)[C@H](CCC(N)=O)NC(=O)[C@@H](CO)NC(=O)[C@@H](N)Cc1c[nH]cn1)[C@@H](C)O)[C@@H](C)O)C(=O)N[C@@H](CO)C(=O)N[C@@H](CCCCN)C(=O)N[C@@H](Cc1ccc(O)cc1)C(=O)N[C@@H](CC(C)C)C(=O)N[C@@H](CC(=O)O)C(=O)N[C@@H](CCC(=O)O)C(=O)N[C@@H](CCCNC(=N)N)C(=O)N[C@@H](C)C(=O)N[C@@H](C)C(=O)N[C@@H](CCCCNC(=O)COCCOCCNC(=O)CCCCN=[N+]=[N-])C(=O)N[C@@H](CC(=O)O)C(=O)N[C@@H](Cc1ccccc1)C(=O)N[C@H](C(=O)N[C@@H](CCC(N)=O)C(=O)N[C@@H](Cc1c[nH]c2ccccc12)C(=O)N[C@@H](CC(C)C)C(=O)N[C@@H](CC(C)C)C(=O)N[C@@H](CC(=O)O)C(=O)N[C@H](C(N)=O)[C@@H](C)O)C(C)C)C(=O)O)C(=O)O`, the Ratio EC50 in test [1] came out at 0.8. `CCCCCCCCCCCCCCCC(=O)N[C@@H](CCC(=O)N[C@@H](CCC(=O)NCCCC[C@H](NC(=O)[C@H](CC(=O)O)NC(=O)[C@H](CO)NC(=O)[C@@H](NC(=O)[C@H](Cc1ccccc1)NC(=O)[C@@H](NC(=O)CNC(=O)[C@H](CCC(N)=O)NC(=O)C(C)(C)NC(=O)[C@@H](N)Cc1c[nH]cn1)[C@@H](C)O)[C@@H](C)O)C(=O)N[C@@H](CO)C(=O)N[C@@H](CCCCN)C(=O)N[C@@H](Cc1ccc(O)cc1)C(=O)N[C@@H](CC(C)C)C(=O)N[C@@H](CC(=O)O)C(=O)NC(C)(C)C(=O)N[C@@H](CCCNC(=N)N)C(=O)N[C@@H](C)C(=O)N[C@@H](C)C(=O)N[C@@H](CCC(N)=O)C(=O)N[C@@H](CC(=O)O)C(=O)N[C@@H](Cc1ccccc1)C(=O)N[C@H](C(=O)N[C@@H](CCC(N)=O)C(=O)N[C@@H](Cc1c[nH]c2ccccc12)C(=O)N[C@@H](CC(C)C)C(=O)N[C@@H](CC(C)C)C(=O)N[C@@H](CC(=O)O)C(=O)N[C@H](C(=O)N[C@@H](CCCCN)C(=O)N[C@@H](CCCCN=[N+]=[N-])C(N)=O)[C@@H](C)O)C(C)C)C(=O)O)C(=O)O`: in test [1], the Ratio EC50 was determined as 1.4. What is called EC50 is the concentration needed to bring the measured effect to its halfway point. As to `CCCCCCCCCCCCCCCC(=O)N[C@@H](CCC(=O)N[C@@H](CCC(=O)NCCCC[C@H](NC(=O)[C@H](CC(=O)O)NC(=O)[C@H](CO)NC(=O)[C@@H](NC(=O)[C@H](Cc1ccccc1)NC(=O)[C@@H](NC(=O)CNC(=O)[C@H](CCC(N)=O)NC(=O)[C@@H](CO)NC(=O)[C@@H](N)Cc1c[nH]cn1)[C@@H](C)O)[C@@H](C)O)C(=O)N[C@@H](CO)C(=O)N[C@@H](CC(C)C)C(=O)N[C@@H](Cc1ccc(O)cc1)C(=O)N[C@@H](CC(C)C)C(=O)N[C@@H](CC(=O)O)C(=O)NC(C)(C)C(=O)N[C@@H](CCCNC(=N)N)C(=O)N[C@@H](C)C(=O)N[C@@H](C)C(=O)N[C@@H](CCC(N)=O)C(=O)N[C@@H](CC(=O)O)C(=O)N[C@@H](Cc1ccccc1)C(=O)N[C@H](C(=O)N[C@@H](CCC(N)=O)C(=O)N[C@@H](Cc1c[nH]c2ccccc12)C(=O)N[C@@H](CC(C)C)C(=O)N[C@@H](CC(C)C)C(=O)N[C@@H](CC(N)=O)C(=O)N[C@H](C(=O)N[C@@H](CCCCN=[N+]=[N-])C(=O)N[C@@H](CCC(N)=O)C(=O)O)[C@@H](C)O)C(C)C)C(=O)O)C(=O)O`, the EC50 in test [2] turned out to be 1.04 nM. As for `CCCCCCCCCCCCCCCC(=O)N[C@@H](CCC(=O)N[C@@H](CCC(=O)NCCCC[C@H](NC(=O)[C@H](CC(=O)O)NC(=O)[C@H](CO)NC(=O)[C@@H](NC(=O)[C@H](Cc1ccccc1)NC(=O)[C@@H](NC(=O)CNC(=O)[C@H](CCC(N)=O)NC(=O)[C@@H](CO)NC(=O)[C@@H](N)Cc1cnc[nH]1)[C@@H](C)O)[C@@H](C)O)C(=O)N[C@@H](CO)C(=O)N[C@@H](CCCCN)C(=O)N[C@@H](Cc1ccc(O)cc1)C(=O)N[C@@H](CC(C)C)C(=O)N[C@@H](CC(=O)O)C(=O)N[C@@H](C)C(=O)N[C@@H](CCCNC(=N)N)C(=O)N[C@@H](C)C(=O)N[C@@H](C)C(=O)N[C@@H](CCC(N)=O)C(=O)N[C@@H](CC(=O)O)C(=O)N[C@@H](Cc1ccccc1)C(=O)N[C@H](C(=O)N[C@@H](CCC(N)=O)C(=O)N[C@@H](Cc1c[nH]c2ccccc12)C(=O)N[C@@H](CC(C)C)C(=O)N[C@@H](CC(C)C)C(=O)N[C@@H](CC(=O)O)C(=O)N[C@H](C(N)=O)[C@@H](C)O)C(C)C)C(=O)O)C(=O)O`, the Ratio EC50 in test [1] stood at 0.9.

In the case of `CCCCCCCCCCCCCCCC(=O)N[C@@H](CCC(=O)N[C@@H](CCC(=O)NCCCC[C@H](NC(=O)[C@H](CC(=O)O)NC(=O)[C@H](CO)NC(=O)[C@@H](NC(=O)[C@H](Cc1ccccc1)NC(=O)[C@@H](NC(=O)CNC(=O)[C@H](CCC(N)=O)NC(=O)[C@@H](CO)NC(=O)[C@@H](N)Cc1c[nH]cn1)[C@@H](C)O)[C@@H](C)O)C(=O)N[C@@H](CO)C(=O)N[C@@H](CCCCN)C(=O)N[C@@H](Cc1ccc(O)cc1)C(=O)N[C@@H](CC(C)C)C(=O)N[C@@H](CC(=O)O)C(=O)N[C@@H](CCC(=O)O)C(=O)N[C@@H](CCCNC(=N)N)C(=O)N[C@@H](C)C(=O)N[C@@H](C)C(=O)N[C@@H](CCC(N)=O)C(=O)N[C@@H](CCCCN=[N+]=[N-])C(=O)N[C@@H](Cc1ccccc1)C(=O)N[C@H](C(=O)N[C@@H](CCC(N)=O)C(=O)N[C@@H](Cc1c[nH]c2ccccc12)C(=O)N[C@@H](CC(C)C)C(=O)N[C@@H](CC(C)C)C(=O)N[C@@H](CC(=O)O)C(=O)N[C@H](C(N)=O)[C@@H](C)O)C(C)C)C(=O)O)C(=O)O`, the EC50 was 0.013 nM in test [3] and 0.028 nM in test [2]. For the same compound, the Ratio EC50 in test [1] was determined as 0.5.
